Reference: US20090227619A1, “Harmine derivatives, intermediates used in their preparations, preparation processes and use therefo” (priority 2003, published 2009)
“And” between values parts separate entries of the source, which are not always exact repeats. Equal entries are not always repeated. Where two headings read alike, the source gives them in different places.

Assays:
HepG2 = experiment: In vitro cytotoxicity, IC50 by MTT method, HepG2; assay type: cell-based, human
In short: (§1)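 MTT viability, 48 h exposure: cells 10^5/ml in RPMI1640 + 10% FBS, 37 °C/5% CO2; MTT 4 h, DMSO solubilisation, A490.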

PLA-801 = experiment: In vitro cytotoxicity, IC50 by MTT method, PLA-801; assay type: cell-based
In short: as §1

Bel-7402 = experiment: In vitro cytotoxicity, IC50 by MTT method, Bel-7402; assay type: cell-based
In short: as §1

BGC-823 = experiment: In vitro cytotoxicity, IC50 by MTT method, BGC-823; assay type: cell-based
In short: as §1

Hela = experiment: In vitro cytotoxicity, IC50 by MTT method, Hela; assay type: cell-based
In short: as §1

Lovo = experiment: In vitro cytotoxicity, IC50 by MTT method, Lovo; assay type: cell-based
In short: as §1

NIH3T3 = experiment: In vitro cytotoxicity, IC50 by MTT method, NIH3T3; assay type: cell-based
In short: as §1

CT-DNA [1] = experiment: DNA thermal denaturation, determination of ΔTm; assay type: binding; settings: CT-DNA thermal denaturation; 20 uM compound; Tm of CT-DNA alone 61° C.
Method: Experiments were carried out in PE buffer (1 mM Na2HPO4, 0.1 mM EDTA, pH 7.6) in a thermostatically controlled cell hold, and the quartz cuvette (1 cm path length) was heated by circulating water at a heating rate of 0.5° C./min from 25 to 95° C. Amsacrine and Doxorubicin Hydrochloride were used as standards. In all cases, the concentration of CT-DNA was 15 ug/ml. The ‘melting’ temperature Tm was taken as the mid-point of the hyperchromic transition.
ΔTm=Tm^drug-DNA complex−Tm^DNA alone
The ΔTm of each compound was calculated, Experiments were repeated three times, and an average value was calculated.

CT-DNA [2] = experiment: UV absorption spectrum method with CT-DNA; assay type: binding; settings: CT-DNA 40 ug/ml, compound 20 uM, 37° C. for 2 h, OD at 260 nm
Method: Compounds to be tested (20 uM) were added into the PE buffer solution, and its scan curve was identified by the spectrograph at a wavelength of from 200 to 400 nm. CT-DNA (40 ug/ml) and compounds to be tested (20 uM) were added into the PE buffer solution. The mixture was cultured at 37° C. for 2 h, and its scan curve was identified by the UV spectrograph at a wavelength of from 200 to 400 nm. […] After that, the OD value at 260 nm of the scan curve of the medicaments tested and that of the CT-DNA mixture OD value at 260 nm of the scan curve were calculated and compared to determine the influences of the medicaments tested on the UV absorption spectrum of the DNA molecules.

Lewis lung cancer = settings: comparison table 43, in vivo, Lewis lung cancer
S180 sarcoma = settings: comparison table 43, in vivo, S180 sarcoma
[3] = Solubility (physico-chemical data tables); settings: qualitative
[4] = HepG2 cell strain, read-out: IC50 HepG2
[5] = PLA-801 cell strain, read-out: IC50 PLA-801
[6] = Bel7402 cell strain, read-out: IC50 Bel7402
[7] = BGC823 cell strain, read-out: IC50 BGC823
[8] = Hela cell strain, read-out: IC50 Hela
[9] = Lovo cell strain, read-out: IC50 Lovo
[10] = NIH3T3 cell strain, read-out: IC50 NIH3T3
[11] = Table 12, 3,9-disubstituted β-carboline derivatives
[12] = Homo sapiens, HepG2 cell strain, read-out: IC50 HepG2
[13] = Homo sapiens, Bel-7402, Bel7402 cell strain, read-out: IC50 Bel7402
[14] = Homo sapiens, BGC-823, BGC823 cell strain, read-out: IC50 BGC823
[15] = Homo sapiens, Hela cell strain, read-out: IC50 Hela
[16] = Homo sapiens, Lovo cell strain, read-out: IC50 Lovo
[17] = Mus musculus, NIH3T3 cell strain, read-out: IC50 NIH3T3
[18] = Table 15, 1,3,9-substituted β-carboline derivatives
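Throughout, for Inhibition rate (%) Lewis cancer: mice implanted subcutaneously in the axilla with Lewis lung tumor cells, treated starting the following day, killed roughly three weeks after implantation.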

## COc1ccc2c(c1)[nH]c1c(C)nccc12 [Compound 1, reference compound]
HepG2; Homo sapiens, HepG2
  IC50: 50 µM
PLA-801
  IC50: 50 µM
Bel-7402; Homo sapiens, Bel-7402
  IC50: 20 µM
BGC-823; Homo sapiens, BGC-823
  IC50: 70 µM
Hela; Homo sapiens, HeLa
  IC50: 60 µM
Lovo; Homo sapiens, LoVo
  IC50: 70 µM
NIH3T3; Mus musculus, NIH3T3
  IC50: 60 µM
CT-DNA [1]
  ΔTm: 8.5 °C
CT-DNA [2]
  Influence on the UV absorption of DNA: reduce the UV absorption of DNA
Lewis lung cancer
  Inhibition rate (%) Lewis cancer: 34.1%
S180 sarcoma
  Inhibition rate (%) S180 sarcomata: 15.3%

## O=C(O)c1cc2c3ccccc3n(Cc3c(F)c(F)c(F)c(F)c3F)c2cn1 [Compound 49, 9-(2′,3′,4′,5′,6′-pentafluoro)benzyl-β-carboline-3-carboxylic acid]
HepG2; [4]
  IC50: 30 µM
PLA-801; [5]
  IC50: 90 µM
Bel-7402; [6]
  IC50: 60 µM
BGC-823; [7]
  IC50: 40 µM
Hela; [8]
  IC50: 40 µM
Lovo; [9]
  IC50: 10 µM
NIH3T3; [10]
  IC50: 20 µM
CT-DNA [2]
  Influence on the UV absorption of DNA: increase the UV absorption of DNA
[3]; [11]
  Solubility: soluble in DMSO

## O=C(Cn1c2ccccc2c2cc(C(=O)O)ncc21)c1ccccc1 [Compound 50, 9-acetophenone-β-carboline-3-carboxylic acid]
HepG2; [4]
  IC50: 90 µM
PLA-801; [5]
  IC50: 140 µM
Bel-7402; [6]
  IC50: 140 µM
BGC-823; [7]
  IC50: 60 µM
Hela; [8]
  IC50: 70 µM
Lovo; [9]
  IC50: 70 µM
NIH3T3; [10]
  IC50: 50 µM
[3]; [11]
  Solubility: soluble in DMSO

## Cc1nc(C(=O)O)cc2c3ccccc3n(Cc3ccccc3)c12 [Compound 64, 9-benzyl-1-methyl-β-carboline-3-carboxylic acid]
HepG2; [12]
  IC50: 280 µM
PLA-801; [5]
  IC50: 410 µM
Bel-7402; [13]
  IC50: 690 µM
BGC-823; [14]
  IC50: 280 µM
Hela; [15]
  IC50: 370 µM
Lovo; [16]
  IC50: 200 µM
NIH3T3; [17]
  IC50: 140 µM
other
  melting point: 246 to 248 °C
[3]; [18]
  Solubility: soluble in DMSO

## Cc1nc(C(=O)O)cc2c3ccccc3n(Cc3c(F)c(F)c(F)c(F)c3F)c12 [Compound 66, 9-(2′,3′,4′,5′,6′-pentafluoro)benzyl-1-methyl-β-carboline-3-carboxylic acid]
HepG2; [4]
  IC50: 120 µM
PLA-801; [5]
  IC50: 190 µM
Bel-7402; [6]
  IC50: 120 µM
BGC-823; [7]
  IC50: 160 µM
Hela; [8]
  IC50: 110 µM
Lovo; [9]
  IC50: 80 µM
NIH3T3; [10]
  IC50: 80 µM
CT-DNA [2]
  Influence on the UV absorption of DNA: increase the UV absorption of DNA
[3]; [18]
  Solubility: soluble in DMSO

## Cc1nc(C(=O)O)cc2c3ccccc3n(CC(=O)c3ccccc3)c12 [Compound 67, 9-acetophenone-1-methyl-β-carboline-3-carboxylic acid]
HepG2; [4]
  IC50: 2230 µM
PLA-801; [5]
  IC50: 2000 µM
Bel-7402; [6]
  IC50: > 3000 µM
BGC-823; [7]
  IC50: 1520 µM
Hela; [8]
  IC50: 2480 µM
Lovo; [9]
  IC50: 1340 µM
NIH3T3; [10]
  IC50: 1460 µM
[3]; [18]
  Solubility: soluble in DMSO

## CCCc1nc(C(=O)O)cc2c3ccccc3n(Cc3ccccc3)c12 [Compound 74, 9-benzyl-1-propyl-β-carboline-3-carboxylic acid]
HepG2; [12]
  IC50: 170 µM
PLA-801; [5]
  IC50: 270 µM
Bel-7402; [13]
  IC50: 180 µM
BGC-823; [14]
  IC50: 270 µM
Hela; [15]
  IC50: 160 µM
Lovo; [16]
  IC50: 140 µM
NIH3T3; [17]
  IC50: 160 µM
other
  melting point: 193 to 194 °C
[3]; [18]
  Solubility: soluble in DMSO

## Cn1c2ccccc2c2cc(C(=O)O)nc(-c3ccccc3)c21 [Compound 78, 9-methyl-1-phenyl-β-carboline-3-carboxylic acid]
HepG2; [12]
  IC50: 160 µM
PLA-801; [5]
  IC50: 650 µM
Bel-7402; [13]
  IC50: 280 µM
BGC-823; [14]
  IC50: 210 µM
Hela; [15]
  IC50: 170 µM
Lovo; [16]
  IC50: 110 µM
NIH3T3; [17]
  IC50: 150 µM
other
  melting point: 223 to 234 °C and 223 to 224 °C
[3]; [18]
  Solubility: soluble in DMSO

## CCn1c2ccccc2c2cc(C(=O)O)nc(-c3ccccc3)c21 [Compound 79, 9-ethyl-1-phenyl-β-carboline-3-carboxylic acid]
HepG2; [12]
  IC50: 160 µM
PLA-801; [5]
  IC50: 110 µM
Bel-7402; [13]
  IC50: 140 µM
BGC-823; [14]
  IC50: 250 µM
Hela; [15]
  IC50: 140 µM
Lovo; [16]
  IC50: 100 µM
NIH3T3; [17]
  IC50: 120 µM
other
  melting point: 194 to 195 °C
[3]; [18]
  Solubility: soluble in DMSO

## CCCCn1c2ccccc2c2ccncc21 [Compound 83, 9-n-butyl-β-carboline]
HepG2; [12]
  IC50: 100 µM
PLA-801; [5]
  IC50: 130 µM
Bel-7402; [13]
  IC50: 160 µM
BGC-823; [14]
  IC50: 100 µM
Hela; [15]
  IC50: 90 µM
Lovo; [16]
  IC50: 130 µM
NIH3T3; [17]
  IC50: 80 µM
CT-DNA [1]
  ΔTm: 2.4 °C
CT-DNA [2]
  Influence on the UV absorption of DNA: reduce the UV absorption of DNA
other
  melting point: 78 to 79 °C
